One assay has as its system HO-1. Particulars: literature (Ishikawa 1997); cited from earlier work.
Another assay relates to Heme Oxygenase 1 (HO-1). The assay can be described thus: HO-1 mRNA expression in dermal fibroblasts (qPCR). It is filed as cell-based, human. Particulars: for HO-1 mRNA expression relative to non-treated control cells: dermal fibroblasts; for Effect on OxPAPC-mediated HO-1 induction: fibroblasts incubated with the ROS scavenger prior to exposure to OxPAPC. How it is done: Neonatal Human Epidermal Keratinocytes (KC) derived from foreskin are obtained from Clonetics (San Diego, Calif.). Keratinocytes are cultured in keratinocyte growth medium (KGM) up to the fifth passage. Human neonatal skin fibroblasts (FB) are obtained from Cascade Biologics (Portland, Oreg.) and grown in Dulbecco's modified Eagle's medium, Gibco (Gaithersburg, Md.) supplemented with 10% fetal calf serum (FCS) and penicillin/streptomycin (1000 U per ml, Gibco) to sub-confluence.
RNA is isolated using Trizol reagent (Invitrogen). Nine hundred ng of total RNA are reverse-transcribed with murine leukemia virus reverse transcriptase (MuLV, Applied Biosystems, Foster City, Calif.) and oligo(dT) primers. The following forward (F) and reverse (R) primers are used: HO-1: F, 5′-[…]-3′; R, 5′-[…]-3′; B2M; F 5′-[…]-3′R,5′-[…]-3′ qPCR is performed using LightCycler technology and the Fast Start SYBR Green I kit (both Roche Applied Science, Basel, Switzerland). In all assays, cDNA is amplified using a standardized program (10-min denaturing step; 55 cycles of 5 s at 95° C., […], and 15 s at 72° C.; melting point analysis in 0.1° C. steps). Quantification of target gene expression is performed using a mathematical model by Pfaffl (Pfaffl, Nucleic Acids Res. 29, e45 (2001)). The expression of the target molecule is normalized to the expression of β-2 microglobulin.
PAPC is oxidized by exposure of the dry lipid to air for 72 h to generate OxPAPC. PAPC dried to a thin film on a glass support is irradiated with UVA-1 with 160 J/cm^2 to generate UV-PAPC. For treatment with singlet oxygen all lipids are vortexed in PBS containing 20 μM Rose Bengal and irradiated with 10 J/cm^2 UVA-1 (FIGS. 5 A,B) or under a commercial 35 W halogen lamp at a distance of 30 cm for 30 minutes (FIG. 5 C). The extent of oxidation was monitored by ESI-MS as described previously (Watson, J. Biol. Chem. 272, 13597-13607 (1997)). The UVA-1 irradiated lipids are solubilized, emulsified or suspended in the respective growth medium before skin cells or the skin equivalent are treated.
Human neonatal skin fibroblasts (FB) are obtained from Cascade Biologics (Portland, Oreg.) and grown in Dulbecco's modified Eagle's medium, Gibco (Gaithersburg, Md.) supplemented with 10% fetal calf serum (FCS) and penicillin/streptomycin (1000 U per ml, Gibco) to sub-confluence.
Fibroblasts are treated with autoxidized PAPC, UVA-1 treated PAPC or UVA-1 untreated PAPC (100 μg/ml) as described in Example 1. Total RNA is isolated after 4 hours from treated cells and untreated control cells.
Relative expression of HO-1 mRNA in dermal fibroblasts is determined 4 h after stimulation with lipids or extracts as specified above using quantitative real-time PCR (qPCR). Normalization is standardized by comparison to the expression of the housekeeping gene beta-2-microglobulin (B2M) as described in Example 1.
Fibroblasts are treated with lipids or extract as described in Example 1 relating to treatment with oxPAPC. Total RNA is isolated 4 h after stimulation with 100 μg/ml of lipids or extract.

Where [1] appears, read: TLC fractions of OxPAPC and synthetic phospholipids (FIG. 2).
[2] abbreviates: lipid not irradiated with UVA-1 in the presence of RB (FIG. 5B).

On to “1-palmitoyl-2-(epoxyisoprostane E2)-sn-glycero-3-phosphorylcholine [PEIPC]”, for which the HO-1 expression result in the assay with HO-1 is “strong inducer of HO-1 expression”.
On to `CCCCCCCCCCCCCC(=O)OC[C@H](COP(=O)([O-])OCC[N+](C)(C)C)OC(=O)CCCCCCCCCCCCC` [DMPC, di-myristoyl-phosphorylcholine], for which, in the assay with Heme Oxygenase 1 (HO-1) (setting [1]), the “HO-1 mRNA expression relative to non-treated control cells” value is given as “failed to induce HO-1 expression”.
For the molecule `CCCCCCCCCCCCCCCC(=O)OC[C@@H](O)COP(=O)([O-])OCC[N+](C)(C)C` [LysoPC, 1-palmitoyl-2-lyso-sn-glycero-3-phosphorylcholine], the “HO-1 mRNA expression relative to non-treated control cells” value with Heme Oxygenase 1 (HO-1) (setting [1]) was “failed to induce HO-1 expression”.
Take `CCCCCCCCCCCCCCCC(=O)OC[C@H](COP(=O)([O-])OCC[N+](C)(C)C)OC(=O)CCCC(=O)O` [PGPC, 1-palmitoyl-2-glutaroyl-sn-glycero-3-phosphorylcholine]: the “HO-1 mRNA expression relative to non-treated control cells” value in the assay on Heme Oxygenase 1 (HO-1) (setting [1]) was “failed to induce HO-1 expression”.
With `CCCCC/C=C\C/C=C\CCCCCCCC(=O)O[C@H](COC(=O)CCCCCCCCCCCCCCC)COP(=O)([O-])OCC[N+](C)(C)C` [PLPC, 1-palmitoyl-2-linoleyl-sn-3-glycerophosphorylcholine], in the assay on Heme Oxygenase 1 (HO-1) (setting [2]), the “HO-1 mRNA expression relative to non-treated control cells” value is “did not induce Heme Oxygenase 1 (HO-1) mRNA expression”.
Take `CCCCCCCC/C=C\CCCCCCCC(=O)O[C@H](COC(=O)CCCCCCCCCCCCCCC)COP(=O)([O-])OCC[N+](C)(C)C` [POPC, 1-palmitoyl-2-oleoyl-sn-3-glycerophosphorylcholine]: the “HO-1 mRNA expression relative to non-treated control cells” value in the assay on Heme Oxygenase 1 (HO-1) (setting [2]) is “did not induce Heme Oxygenase 1 (HO-1) mRNA expression”.
Regarding `CCCCCCCCCCCCCCCC(=O)OC[C@H](COP(=O)(O)OCC[N+](C)(C)C)OC(=O)CCCC=O` [POVPC, 1-palmitoyl-2-(5-oxovaleroyl)-sn-glycero-3-phosphorylcholine], the “HO-1 mRNA expression relative to non-treated control cells” value with Heme Oxygenase 1 (HO-1) (setting [1]) was “failed to induce HO-1 expression”.
`c1ccc(P(c2ccccc2)c2ccccc2)cc1` [TPP, triphenylphosphine]: in the assay with Heme Oxygenase 1 (HO-1) (OxPAPC treated with triphenylphosphine (not shown)), the “Effect on capacity of OxPAPC to induce HO-1 expression” value is “only slightly reduced”.
For the molecule `O=C1O[C@H]([C@@H](O)CO)C(O)=C1O` [vitamin C], the “Effect on OxPAPC-mediated HO-1 induction” value with Heme Oxygenase 1 (HO-1) is on record as “did not significantly reduce”.
As to `CC1=C(/C=C/C(C)=C/C=C/C(C)=C/C=C/C=C(C)/C=C/C=C(C)/C=C/C2=C(C)CCCC2(C)C)C(C)(C)CCC1` [β-carotene], the “Effect on OxPAPC-mediated HO-1 induction” value with Heme Oxygenase 1 (HO-1) is “did not significantly reduce”.
For vitamin E, the “Effect on OxPAPC-mediated HO-1 induction” value in the assay with Heme Oxygenase 1 (HO-1) is given as “did not significantly reduce”.
